Data on 12 compounds can be found in patent US20230233569A1 (Revolution Medicines, Inc., priority 2020, published 2023).

Test [1] relates to AKT1/2/3 (Ser473) phosphorylation (mTORC2) in MDA-MB-468 cells. The test can be described thus: Cell based AlphaLISA assay, mTOR kinase cellular assay: inhibition of p-Akt (S473) in MDA-MB-468 cells. The conditions noted are these: Homo sapiens, read-out: pIC50 for Inhibition of mTORC1 and mTORC2 Substarte Phosphorylation p-AKT1/2/3-(S473) (converted). An outline of the steps:
(§1)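 MDA-MB-468 cells treated with compound at 0.017-1,000 nM for two to four hours at 37° C, then lysed. Phospho-AKT1/2/3 S473, 4EBP1 T37/46 and P70S6K T389 quantified by AlphaLISA SureFire Ultra in duplicate; IC50 from normalized regression with control-based normalization.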
(In general: In Alpha technology, singlet oxygen from a donor bead excites a nearby acceptor bead.)

For test [2], the system named is P70S6K (Thr389) phosphorylation (mTORC1) in MDA-MB-468 cells. Kind of test: Cell based AlphaLISA assay, mTOR kinase cellular assay: inhibition of p-P70S6K (T389) in MDA-MB-468 cells. As to conditions: Homo sapiens, read-out: pIC50 for Inhibition of mTORC1 and mTORC2 Substarte Phosphorylation p-P70S6K-(T389) (converted). As for the experimental part:
Cell Based AlphaLISA Assays for Determining IC50 For Inhibition of P-Akt (S473), P-4E-BP1 (T37/46), and P-P70S6K (T389) in MDA-MB-468 Cells
mTOR Kinase Cellular Assay
To measure functional activity of mTORC1 and mTORC2 in cells the phosphorylation of 4EBP1 (Thr37/46) and P70S6K (Thr389), and AKT1/2/3 (Ser473) was monitored using AlphaLisa SureFire Ultra Kits (Perkin Elmer). MDA-MB-468 cells (ATCC® HTB-132) were cultured in 96-well tissue culture plates and treated with compounds in the disclosure at concentrations varying from 0.017-1,000 nM for two to four hours at 37° C. Incubations were terminated by removal of the assay buffer and addition of lysis buffer provided with the assay kit. Samples were processed according to the manufacturer's instructions. The Alpha signal from the respective phosphoproteins was measured in duplicate using a microplate reader (Envision, Perkin-Elmer or Spectramax M5, Molecular Devices). Inhibitor concentration response curves were analyzed using normalized IC50 regression curve fitting with control based normalization.

Test [3] deals with 4EBP1 (Thr37/46) phosphorylation (mTORC1) in MDA-MB-468 cells. Kind of test: Cell based AlphaLISA assay, mTOR kinase cellular assay: inhibition of p-4E-BP1 (T37/46) in MDA-MB-468 cells. As to conditions: Homo sapiens, read-out: pIC50 for Inhibition of mTORC1 and mTORC2 Substarte Phosphorylation p-4E-BP1-(T37/46) (converted). The method in brief:
as §1

SMILES strings stand for the structures. Bounds are passed on as bounds.

On to `CO[C@H]1C[C@@H]2CC[C@@H](C)[C@@](O)(O2)C(=O)C(=O)N2CCCC[C@H]2C(=O)O[C@H]([C@H](C)C[C@@H]2CC[C@@H](OC(=O)NCCOCCOCCOCCOCCC(=O)NCCOCCOCCOCCOCCC(=O)N3CCc4cc(Cn5nc(-c6ccc7oc(N)nc7c6)c6c(N)ncnc65)ccc4C3)[C@H](OC)C2)CC(=O)[C@H](C)/C=C(\C)[C@@H](O)[C@@H](OC)C(=O)[C@H](C)C[C@H](C)/C=C/C=C/C=C/1C` [Example 15], for which the IC50 was 3.16 to 31.6 nM in test [1], not above 1 nM in test [2] and not above 3.16 nM in test [3].
As for `CO[C@H]1C[C@@H]2CC[C@@H](C)[C@@](O)(O2)C(=O)C(=O)N2CCCC[C@H]2C(=O)O[C@H]([C@H](C)C[C@@H]2CC[C@@H](OC(=O)NCCOCCOCCOCCOCCC(=O)NCCOCCOCCOCCOCCC(=O)N3CCc4cc(Cn5nc(-c6ccc7oc(N)nc7c6)c6c(N)ncnc65)ccc4C3)[C@H](OC)C2)C[C@@H](O)[C@H](C)/C=C(\C)[C@@H](O)[C@@H](OC)C(=O)[C@H](C)C[C@H](C)/C=C/C=C/C=C/1C` [Example 16], the IC50 in test [1] was not above 3.16 nM; in test [2], not above 1 nM; in test [3], not above 3.16 nM.
On to `CO[C@H]1C[C@@H]2CC[C@@H](C)[C@@](O)(O2)C(=O)C(=O)N2CCCC[C@H]2C(=O)O[C@H]([C@H](C)C[C@@H]2CC[C@@H](OC(=O)NCCOCCOCCOCCOCCC(=O)NCCOCCOCCOCCOCCC(=O)N3CCc4cc(Cn5nc(-c6ccc7oc(N)nc7c6)c6c(N)ncnc65)ccc4C3)[C@H](OC)C2)C[C@@H](OC)[C@H](C)/C=C(\C)[C@@H](O)[C@@H](OC)C(=O)[C@H](C)C[C@H](C)/C=C/C=C/C=C/1C` [Example 17], for which the figures for the IC50 in test [1], in test [2] and in test [3] were 3.16 to 31.6 nM, not above 1 nM and not above 3.16 nM, respectively.
The like results for `CO[C@H]1C[C@@H]2CC[C@@H](C)[C@@](O)(O2)C(=O)C(=O)N2CCCC[C@H]2C(=O)O[C@H]([C@H](C)C[C@@H]2CC[C@@H](OC(=O)NCCOCCOCCOCCOCCC(=O)NCCOCCOCCOCCOCCC(=O)NCCCCn3nc(-c4cnc5[nH]ccc5c4)c4c(N)ncnc43)[C@H](OC)C2)CC(=O)[C@H](C)/C=C(\C)[C@@H](O)[C@@H](OC)C(=O)[C@H](C)C[C@H](C)/C=C/C=C/C=C/1C` [Example 18] were, in that order, 31.6 to 1000 nM, not above 1 nM and 3.16 to 31.6 nM.
The like results for `CO[C@H]1C[C@@H]2CC[C@@H](C)[C@@](O)(O2)C(=O)C(=O)N2CCCC[C@H]2C(=O)O[C@H]([C@H](C)C[C@@H]2CC[C@@H](OC(=O)NCCOCCOCCOCCOCCOCCOCCOCCOCCC(=O)N3CCC(n4nc(-c5ccc6oc(N)nc6c5)c5c(N)ncnc54)CC3)[C@H](OC)C2)CC(=O)[C@H](C)/C=C(\C)[C@@H](O)[C@@H](OC)C(=O)[C@H](C)C[C@H](C)/C=C/C=C/C=C/1C` [Example 19] were, in that order, not above 3.16 nM, not above 1 nM and not above 3.16 nM.
As to `CO[C@H]1C[C@@H]2CC[C@@H](C)[C@@](O)(O2)C(=O)C(=O)N2CCCC[C@H]2C(=O)O[C@H]([C@H](C)C[C@@H]2CC[C@@H](OC(=O)NCCOCCOCCOCCOCCOCCOCCOCCOCCOCCOCCC(=O)N3CCC(n4nc(-c5cnc6[nH]ccc6c5)c5c(N)ncnc54)CC3)[C@H](OC)C2)CC(=O)[C@H](C)/C=C(\C)[C@@H](O)[C@@H](OC)C(=O)[C@H](C)C[C@H](C)/C=C/C=C/C=C/1C` [Example 20], the results for the IC50 in test [1], in test [2] and in test [3] were not above 3.16 nM, not above 1 nM and not above 3.16 nM, respectively.
Consider `CO[C@H]1C[C@@H]2CC[C@@H](C)[C@@](O)(O2)C(=O)C(=O)N2CCCC[C@H]2C(=O)O[C@H]([C@H](C)C[C@@H]2CC[C@@H](OC(=O)NCCOCCOCCOCCOCCOCCC(=O)NCCOCCOCCOCCOCCOCCC(=O)N3CCc4cc(Cn5nc(-c6cnc7[nH]ccc7c6)c6c(N)ncnc65)ccc4C3)[C@H](OC)C2)CC(=O)[C@H](C)/C=C(\C)[C@@H](O)[C@@H](OC)C(=O)[C@H](C)C[C@H](C)/C=C/C=C/C=C/1C` [Example 21], for which the IC50 in test [1] is 31.6 to 1000 nM; in test [2], not above 1 nM; in test [3], not above 3.16 nM.
With `CO[C@H]1C[C@@H]2CC[C@@H](C)[C@@](O)(O2)C(=O)C(=O)N2CCCC[C@H]2C(=O)O[C@H]([C@H](C)C[C@@H]2CC[C@@H](OC(=O)NCc3cnc(N4CCN(c5ncc(C(=O)NCCOCCOCCOCCOCCC(=O)N6CCc7cc(Cn8nc(-c9ccc%10oc(N)nc%10c9)c9c(N)ncnc98)ccc7C6)cn5)CC4)nc3)[C@H](OC)C2)CC(=O)[C@H](C)/C=C(\C)[C@@H](O)[C@@H](OC)C(=O)[C@H](C)C[C@H](C)/C=C/C=C/C=C/1C` [Example 27], the results for the IC50 in test [1], in test [2] and in test [3] were 3.16 to 31.6 nM, not above 1 nM and not above 3.16 nM, respectively.
`CO[C@H]1C[C@@H]2CC[C@@H](C)[C@@](O)(O2)C(=O)C(=O)N2CCCC[C@H]2C(=O)O[C@H]([C@H](C)C[C@@H]2CC[C@@H](OC(=O)NCc3cnc(N4CCN(c5ncc(C(=O)NCCOCCOCCOCCOCCC(=O)N6CCc7cc(Cn8nc(-c9ccc%10oc(N)nc%10c9)c9c(N)ncnc98)ccc7C6)cn5)CC4)nc3)[C@H](OC)C2)C[C@@H](O)[C@H](C)/C=C(\C)[C@@H](O)[C@@H](OC)C(=O)[C@H](C)C[C@H](C)/C=C/C=C/C=C/1C` [Example 28]: the IC50 in test [1] is more than 1000 nM; in test [2], not above 1 nM; in test [3] it was not above 3.16 nM.
The corresponding values for `CO[C@H]1C[C@@H]2CC[C@@H](C)[C@@](O)(O2)C(=O)C(=O)N2CCCC[C@H]2C(=O)O[C@H]([C@H](C)C[C@@H]2CC[C@@H](OC(=O)NCc3cnc(N4CCN(c5ncc(C(=O)NCCOCCOCCOCCOCCC(=O)N6CCc7cc(Cn8nc(-c9ccc%10oc(N)nc%10c9)c9c(N)ncnc98)ccc7C6)cn5)CC4)nc3)[C@H](OC)C2)C[C@@H](OC)[C@H](C)/C=C(\C)[C@@H](O)[C@@H](OC)C(=O)[C@H](C)C[C@H](C)/C=C/C=C/C=C/1C` [Example 29] are more than 1000 nM, not above 1 nM and not above 3.16 nM.
On to `CO[C@H]1C[C@@H]2CC[C@@H](C)[C@@](O)(O2)C(=O)C(=O)N2CCCC[C@H]2C(=O)O[C@H]([C@H](C)C[C@@H]2CC[C@@H](OC(=O)NCc3cnc(N4CCN(c5ncc(C(=O)NCCOCCOCCC(=O)N6CCc7cc(Cn8nc(-c9ccc%10oc(N)nc%10c9)c9c(N)ncnc98)ccc7C6)cn5)CC4)nc3)[C@H](OC)C2)CC(=O)[C@H](C)/C=C(\C)[C@@H](O)[C@@H](OC)C(=O)[C@H](C)C[C@H](C)/C=C/C=C/C=C/1C` [Example 31], for which the results for the IC50 in test [1], in test [2] and in test [3] were 3.16 to 31.6 nM, not above 1 nM and not above 3.16 nM, respectively.
For `CO[C@H]1C[C@@H]2CC[C@@H](C)[C@@](O)(O2)C(=O)C(=O)N2CCCC[C@H]2C(=O)O[C@H]([C@H](C)C[C@@H]2CC[C@@H](OC(=O)NCc3cnc(N4CCN(c5ncc(C(=O)NCCOCCOCCOCCOCCC(=O)NCCCCn6nc(-c7cnc8[nH]ccc8c7)c7c(N)ncnc76)cn5)CC4)nc3)[C@H](OC)C2)CC(=O)[C@H](C)/C=C(\C)[C@@H](O)[C@@H](OC)C(=O)[C@H](C)C[C@H](C)/C=C/C=C/C=C/1C` [Example 32], the IC50 in test [1] is 3.16 to 31.6 nM; in test [2], not above 1 nM; in test [3], not above 3.16 nM.
